Assay: in vitro
Details: human, hela cells, % viability

Point of comparison: `C=CCn1c(CCCNC=O)nc2ccccc21` [CBK269375], viability at 28.5 h, 10 µM 94.2%. Against it:
- Cc1cc(Br)ccc1NC(=O)C(=O)NC1CC1 [CBK269284] — lower, 83.6%
- O=C(O)c1cc(-n2c(S)nnc2-c2cnccn2)ccc1Cl [CBK269285] — lower, 86.2%
- CN(C)CCN1C(=O)C2C3c4ccccc4C([N+](=O)[O-])(c4ccccc43)C2C1=O (stereo not shown) [CBK269286] — lower, 81.4%
- Cc1cccc(OCC(=O)Nc2ccc(-c3nc4ncccc4o3)cc2C)c1 [CBK269287] — lower, 87.3%
- Cc1nnc(SCCn2c(N3CCCCC3)nc3c2c(=O)n(C)c(=O)n3C)s1 [CBK269288] — higher, 103%
- COc1ccc(OC(=O)COc2nc3c(C)cc(C)nc3[nH]2)cc1 [CBK269290] — higher, 106%
- CC1CCN(Cc2nc3c(c(=O)n(C)c(=O)n3C)n2CCN2CCOCC2)CC1 [CBK269291] — higher, 108%
- O=C1CC(c2ccco2)Cc2c1cnn2-c1nc2ccccc2s1 (stereo not shown) [CBK269292] — lower, 81.4%
- CCN(CC(=O)N1CCN(C)CC1)S(=O)(=O)c1cc(Cl)ccc1Cl [CBK269297] — higher, 104%
- CC1CN(Cc2nc3c(c(=O)n(C)c(=O)n3C)n2CCCO)CC(C)O1 (stereo not shown) [CBK269298] — higher, 99%
- CCCCOc1ccccc1NC(=O)CC1NCCNC1=O (stereo not shown) [CBK269299] — higher, 94.7%
- O=S(=O)(N1CCOCC1)N1CCN(CC(O)COc2ccc(-c3ccccc3)cc2)CC1 (stereo not shown) [CBK269301] — higher, 106%
- CC(=O)Nc1ccc(Oc2c(F)c(F)c(/C=C/CN3CCOCC3)c(F)c2F)cc1 [CBK269302C] — lower, 89%
- O=[N+]([O-])c1ccc(S(=O)(=O)N2CCC3(CC2)OCCO3)cc1 [CBK269303] — higher, 97.5%
- CC(C)(C)C(=O)NC(=S)NNC(=O)c1ccncc1 [CBK269304] — lower, 90.6%
- O=C(O)c1cccnc1SC1CC(=O)N(c2cccc(Cl)c2Cl)C1=O (stereo not shown) [CBK269306] — higher, 110%
- COC(=O)c1c(NC(=O)CC2Nc3ccccc3NC2=O)sc2c1CCC2 (stereo not shown) [CBK269307A] — lower, 93.7%
- CS(=O)(=O)N1CCCC(C(=O)NCc2ccccn2)C1 (stereo not shown) [CBK269308] — higher, 101%
- CCOc1cc(CNCCO)c(Cl)cc1OC [CBK269309C] — higher, 102%
- CNc1cc(N2CCN(S(=O)(=O)N(C)C)CC2)ccc1[N+](=O)[O-] [CBK269311] — lower, 89.8%
- Cc1ccc(-c2noc(CN(C(=O)CCc3ccccc3)C(C)C)n2)cc1 [CBK269313] — higher, 99.3%
- Cc1ccc(SCc2ccc(C(=O)NCCN3CCOCC3)cc2)cc1 [CBK269314] — higher, 98.7%
- CC(Sc1ccc(Cl)cc1)C(=O)NCCN1CCOCC1 (stereo not shown) [CBK269316] — higher, 111%
- CN(C)CCCNc1oc(/C=C/c2cccs2)nc1C#N [CBK269317] — lower, 86.7%
- CCN(CC)CCN1C(=O)C(O)=C(C(=O)c2cccs2)C1c1ccccn1 (stereo not shown) [CBK269319] — lower, 76.3%
- NS(=O)(=O)c1ccc(NC(=O)CCSc2ccc(Cl)cc2)cc1 [CBK269322] — higher, 94.4%
- Nc1c(C(=O)NCc2ccco2)c2nc3ccccc3nc2n1C1CCCC1 [CBK269323] — higher, 106%
- COCCN(Cc1cc2ccc(C)cc2nc1O)C(=O)c1cccs1 [CBK269324] — higher, 100%
- CCOC(=O)N1CCN(Cc2nc3c(c(=O)n(C)c(=O)n3C)n2Cc2ccccc2C)CC1 [CBK269325] — lower, 91.8%
- Cc1ccc(CSCC(=O)NCCN2CCOCC2)cc1 [CBK269327] — lower, 90.4%
- CC(Sc1ccccc1)C(=O)NCCN1CCOCC1 (stereo not shown) [CBK269332] — higher, 95.9%
- Cc1ccc(OCCSc2nnc(N)[nH]2)cc1 [CBK269334] — higher, 98.9%
- Cc1ccc(C(=O)CC(C(=O)O)c2c(C)[nH]c3ccccc23)cc1 (stereo not shown) [CBK269337] — higher, 96.1%
- COC(=O)C(CC(=O)c1ccc(Br)cc1)n1cccn1 (stereo not shown) [CBK269338] — higher, 104%
- COc1ccccc1CC(=O)N(Cc1nc(-c2cccc(C)c2)no1)C(C)C [CBK269345] — higher, 95.7%
- O=C(CSc1nnc(-c2ccncc2)n1Cc1ccccc1)Nc1ccc(Cl)cc1 [CBK269346] — higher, 97.3%
- COc1ccc(S(=O)(=O)NC(C)C(=O)NCc2ccncc2)cc1C (stereo not shown) [CBK269347] — higher, 101%
- CC1CN(Cc2nc3c(c(=O)n(C)c(=O)n3C)n2CCCc2ccccc2)CC(C)O1 (stereo not shown) [CBK269349] — lower, 91.7%
- O=C(Nc1ccccc1C(=O)NCc1ccccc1)c1cccc(F)c1 [CBK269351] — lower, 88.9%
- O=C(CCSc1ccc(Cl)cc1)NCCN1CCOCC1 [CBK269352] — higher, 98.2%
- Cc1ccnc(Sc2nc3c(c(=O)[nH]c(=O)n3C)n2CCCc2ccccc2)n1 [CBK269353] — lower, 79.4%
- CCOC(=O)c1cccc(NC(=O)CSc2nc3cccnc3[nH]2)c1 [CBK269354] — higher, 95.1%
- COc1ccc(C)cc1S(=O)(=O)N(CC(=O)N1CCN(C)CC1)c1cccc(C(F)(F)F)c1 [CBK269355] — higher, 96.2%
- COc1nc2ccccc2nc1CCC(=O)O [CBK269356] — lower, 89.1%
- OCCn1ncc2c(SC3CCCCC3)ncnc21 [CBK269358] — lower, 87.8%
- N#Cc1c(NC(=O)C(=O)NCc2ccccn2)sc2c1CCCC2 [CBK269360] — higher, 95.9%
- O=S(=O)(Nc1cccnc1)N1CCOCC1 [CBK269362] — higher, 97.9%
- CCCn1c(CN2CCN(CCO)CC2)nc2ccccc21 [CBK269363] — higher, 110%
- Cc1cccnc1NC(=O)c1ccc(N2CCN(C)CC2)c([N+](=O)[O-])c1 [CBK269366] — higher, 95.4%
- Cc1ccccc1OC(C)C(=O)Nc1ccc(S(=O)(=O)N2CCCC2)cc1 (stereo not shown) [CBK269367] — lower, 89.7%
- Cc1cccc(N2CCN(CC(=O)Nc3ccc(S(N)(=O)=O)cc3)CC2)c1C [CBK269369] — higher, 96.8%
- O=S(=O)(N1CCCCC1)N1CCN(CC(O)COc2ccc(-c3ccccc3)cc2)CC1 (stereo not shown) [CBK269370] — higher, 94.9%
- Cc1cc(C)nc(-n2ncc3c2CC(c2cccs2)CC3=O)n1 (stereo not shown) [CBK269371] — higher, 107%
- COc1ccc(/C=C/c2nc3ccccc3s2)cc1S(=O)(=O)N1CCOCC1 [CBK269373] — lower, 89.9%
- Cc1ccc(N2C(=O)CC(Sc3ncccc3C(=O)O)C2=O)c(C)c1 (stereo not shown) [CBK269377] — lower, 91.9%
- C=CCNS(=O)(=O)c1ccc(NC(=O)Cc2cccc3ccccc23)cc1 [CBK269379] — higher, 109%
- O=C(O)c1cc(C(=O)O)n(Cc2ccccc2Cl)n1 [CBK269381] — lower, 88.1%
- CCOC(=O)Cn1c(CN2CCCCC2C)nc2c1c(=O)n(C)c(=O)n2C (stereo not shown) [CBK269382] — higher, 95.1%
- Cc1nc(N)sc1-c1nnc(SC/C=C/c2ccccc2)n1C [CBK269383] — lower, 81.7%
- N#CC(C(=O)CN1CCN(Cc2ccccc2)CC1)c1ccccc1 (stereo not shown) [CBK269386] — higher, 99.6%
- O=C(Nc1cccc2ccccc12)C(c1ccccc1)N1CCOCC1 (stereo not shown) [CBK269388] — higher, 102%
- C=CCn1c(COc2cccc(Cl)c2)nnc1SCC(=O)O [CBK269389] — lower, 90.2%
- O=C(Nc1ccccc1[N+](=O)[O-])C(c1ccccc1)N1CCOCC1 (stereo not shown) [CBK269390] — lower, 94%
- O=S(=O)(Nc1ccccn1)N1CCOCC1 [CBK269391] — lower, 86.9%
- O=CNCCCc1nc2ccccc2n1CCc1ccccc1 [CBK269393] — lower, 89.5%
- Cc1ccnc(SCCn2c(N(C)Cc3ccccc3)nc3c2c(=O)n(C)c(=O)n3C)n1 [CBK269394] — higher, 98.9%
- COCCN(Cc1cc2cccc(C)c2nc1O)S(C)(=O)=O [CBK269395] — higher, 99.9%
- CCCN1CCN(c2ncnc3sc(C4COc5ccccc5O4)cc23)CC1 (stereo not shown) [CBK269396] — higher, 98.1%
- COc1ccc(N2CCN(CC(=O)N3c4ccccc4Sc4ccccc43)CC2)cc1 [CBK269398] — lower, 89.1%
- Cc1cc(C)n(-c2nc3ccccc3nc2N2CCN(S(=O)(=O)c3ccccc3)CC2)n1 [CBK269399] — lower, 79.9%
- COC(=O)c1ccccc1NC(=O)CC1Sc2ccccc2NC1=O (stereo not shown) [CBK269400] — lower, 90.2%
- COc1ccc(-c2coc3c(C)c4oc(=O)c(CC(=O)O)c(C)c4cc23)cc1 [CBK269403] — higher, 105%
- O=C(CCNS(=O)(=O)c1ccc(Cl)cc1)N1CCN(Cc2ccccc2)CC1 [CBK269405] — higher, 101%
- O=C(O)Cc1ccc(NC(=O)C2Cc3ccccc3C(=O)O2)cc1 (stereo not shown) [CBK269406] — lower, 85.1%
- O=C(COc1nc2cc3c(nc2o1)CCC3)c1ccccc1 [CBK269407] — lower, 75.5%
- Cc1ccc2cc(CN(Cc3ccco3)S(C)(=O)=O)c(O)nc2c1 [CBK269409] — higher, 105%
- Cc1cc(OCC(=O)Nc2ccccc2N2CCN(S(C)(=O)=O)CC2)ccc1Cl [CBK269410] — higher, 103%
- CC1Oc2ccccc2OC1C(=O)Nc1ccc([N+](=O)[O-])cc1Cl (stereo not shown) [CBK269412] — lower, 85.8%
- CCN1CCN(Cc2nc3c([nH]2)c(=O)n(C)c(=O)n3C)CC1 [CBK269413] — lower, 90.5%
- CN(C)CCCNc1ccc(C(F)(F)F)cn1 [CBK269414] — lower, 86.2%
- O=C(CCCc1nc(-c2ccc(Cl)cc2)no1)NCc1cccnc1 [CBK269415] — lower, 90.4%
- Cc1ccc(S(=O)(=O)N2CCN(CCC(=O)O)CC2)cc1C [CBK269416] — lower, 93.3%
- Cc1ccc2nsnc2c1NC(=O)COc1ccccc1F [CBK269420] — higher, 105%
- O=C(CS(=O)(=O)c1ccccc1)Nc1ccc(OCc2ccccc2)cc1 [CBK269421] — higher, 98.4%
- CCN1CCN(CC(=O)C(C#N)c2ccccc2)CC1 (stereo not shown) [CBK269423] — lower, 92.8%
- O=S(=O)(c1ccccc1)N(Cc1cc2ccccc2nc1O)CC1CCCO1 (stereo not shown) [CBK269424] — lower, 93.3%
- CCN(CC(=O)Nc1ccccc1OC)S(=O)(=O)c1ccccc1 [CBK269428] — higher, 97.1%
- O=C(O)COc1noc2nc3c(cc12)CCCCC3 [CBK269429] — higher, 97.7%
- Cc1ccc(-c2noc(CN(C(=O)c3ccc(Br)o3)C(C)C)n2)cc1 [CBK269440] — lower, 83.2%
- COc1ccc(S(=O)(=O)NC(C)C(=O)NCc2ccncc2)cc1 (stereo not shown) [CBK269441] — higher, 107%

— paper PMC12040169 (PLOS Biology, 2025)
